Like-named read-outs stand apart in the source and are kept apart here.
Experiments:
[1] = tested on: AID-fused proteins in mammalian cells; conditions: cited from earlier work
[2] = tested on: aphidicolin-treated mESCs; experiment: Mitotic entry after auxin in aphidicolin-treated A-CHK1 mESCs (mitotic index, flow cytometry); assay type: cell-based, mouse; conditions: A-CHK1 mESCs pretreated with aphidicolin for 1 day
Description: FIG. 5A is a western blot analysis depicting endogenous CHK1 (*) and AID^47-CHK1 (A-CHK1, **) in four selected clones and in parental non-infected mESCs. […] serves as a loading control. Experiment was repeated three times for clones #1 and #2, and a representative blot is presented. In FIG. 5B, A-CHK1 #2 mESCs were treated with ethanol (“Con”) or auxin (“IAA”) for 1 day. Cells were then treated with the indicated concentrations of aphidicolin (“Aph”). Equal concentrations of DMSO were applied to all conditions. The next day, cells were stained with crystal violet and plates were scanned. […] Left panel: mitotic index was calculated as the percentage of H3^pS10-positive cells with 4N DNA content, measured by flow cytometry. […] Tyr15 phosphorylation of CDK1 (“CDKlpY^15”) was detected using a phospho-specific antibody. β-Actin serves as a loading control. […]
Flow cytometry was performed on a BD LSRII machine. For GFP and mOrange fluorescence analysis, cells were trypsinized, neutralized with FBS-containing media, supplemented with […] DAPI and kept on ice. […] GFP and mOrange fluorescence intensities were detected using the fluorescein isothiocyanate (“FITC”) and DsRed channels, respectively. Background autofluorescence was measured using parental noninfected cells. […] To calculate % degradation, relative median fluorescence was subtracted from 1. […]

human ESCs = experiment: mRNA-Seq of H9 hESCs treated with coronatine; assay type: cell-based; conditions: H9 cells, 50 μM coronatine, 2 days

| SMILES | rapidity of auxin-dependent protein depletion ([1]; reported by Han et al.) | rapidity of auxin-dependent protein depletion ([1]; reported by Holland et al.) | rapidity of auxin-dependent protein depletion ([1]; reported by Lambrus et al.) | rapidity of auxin-dependent protein depletion ([1]; reported by Rodriguez-Bravo et al.) | time of synchronous mitotic entry post-auxin treatment [2] | effect on global gene expression patterns (human ESCs; mRNA-Seq) | genes with differential expression between coronatine and control samples (human ESCs; P<0.05 and fold change >2 in both replicates) |
| --- | --- | --- | --- | --- | --- | --- | --- |
| O=C(O)Cc1c[nH]c2ccccc12 [auxin, indole-3-acetic acid] | ~90 min | 60 to 100 min | 10 to 30 min | > 120 min | 45 to 90 min |  |  |
| CC[C@H]1C=C(C(=O)N[C@@]2(C(=O)O)C[C@@H]2CC)[C@H]2CCC(=O)[C@H]2C1 [coronatine, Coronatine] |  |  |  |  |  | does not affect global gene expression patterns | only two genes |

Reference: patent publication US11078496B2, “System for F-box hormone receptor regulated protein expression in mammalian cells” (ICAHN SCHOOL OF MEDICINE AT MOUNT SINAI, priority 2016, dated 2021)
